# Assay results published in ChEMBL document CHEMBL3046801, “Synthesis of 2-R1-2-(4-(2-fluoroethoxy)benzamido)acetate as potential PET imaging agents” (Med Chem Res, 2012).
# Tests used:
# Liver [1] = test: Biodistribution in tumor bearing Mus musculus KM (mouse) liver at 30 min by microPET imaging analysis; assay type: ADME, organism-based; conditions: in vivo, 0.5 h
# Liver [2] = test: Biodistribution in tumor bearing Mus musculus KM (mouse) liver at 60 min by microPET imaging analysis; assay type: ADME, organism-based; conditions: in vivo, 1 h
# Liver [3] = test: Biodistribution in tumor bearing Mus musculus KM (mouse) liver at 5 min by microPET imaging analysis; assay type: ADME, organism-based; conditions: in vivo
# Liver [4] = test: Biodistribution in tumor bearing Mus musculus KM (mouse) liver at 15 min by microPET imaging analysis; assay type: ADME, organism-based; conditions: in vivo, 0.25 h
# Heart [5] = test: Biodistribution in tumor bearing Mus musculus KM (mouse) heart at 120 min by microPET imaging analysis; assay type: ADME, organism-based; conditions: in vivo, 2 h
# Heart [6] = test: Biodistribution in tumor bearing Mus musculus KM (mouse) heart at 60 min by microPET imaging analysis; assay type: ADME, organism-based; conditions: in vivo, 1 h
# Heart [7] = test: Biodistribution in tumor bearing Mus musculus KM (mouse) heart at 30 min by microPET imaging analysis; assay type: ADME, organism-based; conditions: in vivo, 0.5 h
# Heart [8] = test: Biodistribution in tumor bearing Mus musculus KM (mouse) heart at 5 min by microPET imaging analysis; assay type: ADME, organism-based; conditions: in vivo
# Heart [9] = test: Biodistribution in tumor bearing Mus musculus KM (mouse) heart at 15 min by microPET imaging analysis; assay type: ADME, organism-based; conditions: in vivo, 0.25 h
# Nucleic Acid [10] = test: Ratio of drug uptake in tumor to muscle in Mus musculus KM (mouse) at 60 min; assay type: ADME, nucleic-acid assay; conditions: in vivo, 1 h
# Nucleic Acid [11] = test: Ratio of drug uptake in tumor to muscle in Mus musculus KM (mouse) at 120 min; assay type: ADME; conditions: in vivo, 2 h
# Nucleic Acid [12] = test: Ratio of drug uptake in tumor to muscle in Mus musculus KM (mouse) at 30 min; assay type: ADME, nucleic-acid assay; conditions: in vivo, 0.5 h
# Nucleic Acid [13] = test: Ratio of drug uptake in tumor to muscle in Mus musculus KM (mouse) at 15 min; assay type: ADME, nucleic-acid assay; conditions: in vivo, 0.25 h
# Spleen [14] = test: Biodistribution in tumor bearing Mus musculus KM (mouse) spleen at 15 min by microPET imaging analysis; assay type: ADME, organism-based; conditions: in vivo, 0.25 h
# Liver [15] = test: Biodistribution in tumor bearing Mus musculus KM (mouse) liver at 120 min by microPET imaging analysis; assay type: ADME, organism-based; conditions: in vivo, 2 h
# Spleen [16] = test: Biodistribution in tumor bearing Mus musculus KM (mouse) spleen at 5 min by microPET imaging analysis; assay type: ADME, organism-based; conditions: in vivo
# Tumour [17] = test: Biodistribution in Mus musculus KM (mouse) tumor at 120 min by microPET imaging analysis; assay type: ADME, organism-based, Neoplasm; conditions: in vivo, 2 h
# Tumour [18] = test: Biodistribution in Mus musculus KM (mouse) tumor at 60 min by microPET imaging analysis; assay type: ADME, organism-based, Neoplasm; conditions: in vivo, 1 h
# Tumour [19] = test: Biodistribution in Mus musculus KM (mouse) tumor at 30 min by microPET imaging analysis; assay type: ADME, organism-based, Neoplasm; conditions: in vivo, 0.5 h
# Tumour [20] = test: Biodistribution in Mus musculus KM (mouse) tumor at 5 min by microPET imaging analysis; assay type: ADME, organism-based, Neoplasm; conditions: in vivo
# Tumour [21] = test: Biodistribution in Mus musculus KM (mouse) tumor at 15 min by microPET imaging analysis; assay type: ADME, organism-based, Neoplasm; conditions: in vivo, 0.25 h
# Brain [22] = test: Biodistribution in tumor bearing Mus musculus KM (mouse) brain at 120 min by microPET imaging analysis; assay type: ADME, organism-based; conditions: in vivo, 2 h
# Brain [23] = test: Biodistribution in tumor bearing Mus musculus KM (mouse) brain at 60 min by microPET imaging analysis; assay type: ADME, organism-based; conditions: in vivo, 1 h
# Brain [24] = test: Biodistribution in tumor bearing Mus musculus KM (mouse) brain at 15 min by microPET imaging analysis; assay type: ADME, organism-based; conditions: in vivo, 0.25 h
# Brain [25] = test: Biodistribution in tumor bearing Mus musculus KM (mouse) brain at 30 min by microPET imaging analysis; assay type: ADME, organism-based; conditions: in vivo, 0.5 h
# Brain [26] = test: Biodistribution in tumor bearing Mus musculus KM (mouse) brain at 5 min by microPET imaging analysis; assay type: ADME, organism-based; conditions: in vivo
# Blood [27] = test: Biodistribution in tumor bearing Mus musculus KM (mouse) blood at 120 min by microPET imaging analysis; assay type: ADME, organism-based; conditions: in vivo, 2 h
# Blood [28] = test: Biodistribution in tumor bearing Mus musculus KM (mouse) blood at 60 min by microPET imaging analysis; assay type: ADME, organism-based; conditions: in vivo, 1 h
# Blood [29] = test: Biodistribution in tumor bearing Mus musculus KM (mouse) blood at 30 min by microPET imaging analysis; assay type: ADME, organism-based; conditions: in vivo, 0.5 h
# Blood [30] = test: Biodistribution in tumor bearing Mus musculus KM (mouse) blood at 15 min by microPET imaging analysis; assay type: ADME, organism-based; conditions: in vivo, 0.25 h
# Blood [31] = test: Biodistribution in tumor bearing Mus musculus KM (mouse) blood at 5 min by microPET imaging analysis; assay type: ADME, organism-based; conditions: in vivo
# Muscle tissue [32] = test: Biodistribution in tumor bearing Mus musculus KM (mouse) muscle at 120 min by microPET imaging analysis; assay type: ADME, organism-based; conditions: in vivo, 2 h
# Muscle tissue [33] = test: Biodistribution in tumor bearing Mus musculus KM (mouse) muscle at 30 min by microPET imaging analysis; assay type: ADME, organism-based; conditions: in vivo, 0.5 h
# Muscle tissue [34] = test: Biodistribution in tumor bearing Mus musculus KM (mouse) muscle at 60 min by microPET imaging analysis; assay type: ADME, organism-based; conditions: in vivo, 1 h
# Muscle tissue [35] = test: Biodistribution in tumor bearing Mus musculus KM (mouse) muscle at 15 min by microPET imaging analysis; assay type: ADME, organism-based; conditions: in vivo, 0.25 h
# Muscle tissue [36] = test: Biodistribution in tumor bearing Mus musculus KM (mouse) muscle at 5 min by microPET imaging analysis; assay type: ADME, organism-based; conditions: in vivo
# Kidney [37] = test: Biodistribution in tumor bearing Mus musculus KM (mouse) kidney at 120 min by microPET imaging analysis; assay type: ADME, organism-based; conditions: in vivo, 2 h
# Kidney [38] = test: Biodistribution in tumor bearing Mus musculus KM (mouse) kidney at 60 min by microPET imaging analysis; assay type: ADME, organism-based; conditions: in vivo, 1 h
# Kidney [39] = test: Biodistribution in tumor bearing Mus musculus KM (mouse) kidney at 30 min by microPET imaging analysis; assay type: ADME, organism-based; conditions: in vivo, 0.5 h
# Kidney [40] = test: Biodistribution in tumor bearing Mus musculus KM (mouse) kidney at 5 min by microPET imaging analysis; assay type: ADME, organism-based; conditions: in vivo
# Kidney [41] = test: Biodistribution in tumor bearing Mus musculus KM (mouse) kidney at 15 min by microPET imaging analysis; assay type: ADME, organism-based; conditions: in vivo, 0.25 h
# Lung [42] = test: Biodistribution in tumor bearing Mus musculus KM (mouse) Lung at 120 min by microPET imaging analysis; assay type: ADME, organism-based; conditions: in vivo, 2 h
# Lung [43] = test: Biodistribution in tumor bearing Mus musculus KM (mouse) Lung at 60 min by microPET imaging analysis; assay type: ADME, organism-based; conditions: in vivo, 1 h
# Lung [44] = test: Biodistribution in tumor bearing Mus musculus KM (mouse) Lung at 30 min by microPET imaging analysis; assay type: ADME, organism-based; conditions: in vivo, 0.5 h
# Lung [45] = test: Biodistribution in tumor bearing Mus musculus KM (mouse) Lung at 15 min by microPET imaging analysis; assay type: ADME, organism-based; conditions: in vivo, 0.25 h
# Spleen [46] = test: Biodistribution in tumor bearing Mus musculus KM (mouse) spleen at 120 min by microPET imaging analysis; assay type: ADME, organism-based; conditions: in vivo, 2 h
# Lung [47] = test: Biodistribution in tumor bearing Mus musculus KM (mouse) Lung at 5 min by microPET imaging analysis; assay type: ADME, organism-based; conditions: in vivo
# Spleen [48] = test: Biodistribution in tumor bearing Mus musculus KM (mouse) spleen at 60 min by microPET imaging analysis; assay type: ADME, organism-based; conditions: in vivo, 1 h
# Spleen [49] = test: Biodistribution in tumor bearing Mus musculus KM (mouse) spleen at 30 min by microPET imaging analysis; assay type: ADME, organism-based; conditions: in vivo, 0.5 h
structure (smiles),measurement,setting,value
OC[C@H]1OC(O)[C@H]([18F])[C@@H](O)[C@@H]1O (some centres undefined) [FLUDEOXYGLUCOSE F 18],Drug uptake,Liver [1],0.46 % ID/g
same,Drug uptake,Liver [2],0.5 % ID/g
same,Drug uptake,Liver [3],1.85 % ID/g
same,Drug uptake,Liver [4],0.92 % ID/g
same,Drug uptake,Heart [5],9.6 % ID/g
same,Drug uptake,Heart [6],8.87 % ID/g
same,Drug uptake,Heart [7],6.42 % ID/g
same,Drug uptake,Heart [8],5.33 % ID/g
same,Drug uptake,Heart [9],6.12 % ID/g
same,Ratio,Nucleic Acid [10],1.94
same,Ratio,Nucleic Acid [11],1.74
same,Ratio,Nucleic Acid [12],1.52
same,Ratio,Nucleic Acid [13],1.28
same,Drug uptake,Spleen [14],1.98 % ID/g
same,Drug uptake,Liver [15],0.49 % ID/g
same,Drug uptake,Spleen [16],1.92 % ID/g
same,Drug uptake,Tumour [17],3.12 % ID/g
same,Drug uptake,Tumour [18],3.86 % ID/g
same,Drug uptake,Tumour [19],3.16 % ID/g
same,Drug uptake,Tumour [20],1.96 % ID/g
same,Drug uptake,Tumour [21],2.97 % ID/g
same,Drug uptake,Brain [22],1.89 % ID/g
same,Drug uptake,Brain [23],3.51 % ID/g
same,Drug uptake,Brain [24],4.55 % ID/g
same,Drug uptake,Brain [25],4.25 % ID/g
same,Drug uptake,Brain [26],3.81 % ID/g
same,Drug uptake,Blood [27],0.15 % ID/g
same,Drug uptake,Blood [28],0.19 % ID/g
same,Drug uptake,Blood [29],0.29 % ID/g
same,Drug uptake,Blood [30],0.94 % ID/g
same,Drug uptake,Blood [31],2.01 % ID/g
same,Drug uptake,Muscle tissue [32],1.85 % ID/g
same,Drug uptake,Muscle tissue [33],2.08 % ID/g
same,Drug uptake,Muscle tissue [34],1.99 % ID/g
same,Drug uptake,Muscle tissue [35],2.33 % ID/g
same,Drug uptake,Muscle tissue [36],2.92 % ID/g
same,Drug uptake,Kidney [37],0.52 % ID/g
same,Drug uptake,Kidney [38],0.9 % ID/g
same,Drug uptake,Kidney [39],1.07 % ID/g
same,Drug uptake,Kidney [40],3.36 % ID/g
same,Drug uptake,Kidney [41],2.05 % ID/g
same,Drug uptake,Lung [42],1.05 % ID/g
same,Drug uptake,Lung [43],1.52 % ID/g
same,Drug uptake,Lung [44],1.4 % ID/g
same,Drug uptake,Lung [45],1.96 % ID/g
same,Drug uptake,Spleen [46],1.35 % ID/g
same,Drug uptake,Lung [47],2.37 % ID/g
same,Drug uptake,Spleen [48],1.83 % ID/g
same,Drug uptake,Spleen [49],1.75 % ID/g
